Target: T1, BRD4(BD1) (Homo sapiens, UniProt O60885)
T1 construct: His; made in house
Experiment: BRD4 Alphalisa binding assay
Details: not given
Method: IC50 Measurements for Inhibitors Using BRD4 Alphalisa Binding Assay
His/[…] epitope tagged BRD4 BD142-168 was cloned, expressed and purified to homogeneity. BRD4 binding and inhibition was assessed by monitoring the engagement of biotinylated H4-tetraacetyl peptide (Millipore #12-379) with the target using the AlphaLisa technology (Perkin-Elmer). Specifically, in a 384 well ProxiPlate BRD4(BD1) (30 nM final) was combined with peptide (200 nM final) in 40 mM HEPES (pH 7.0), 40 mM NaCl, 1 mM DTT, 0.01% (w/v) BSA, and 0.008% (w/v) Brij-35 either in the presence of DMSO (final 1.2% DMSO) or compound dilution series in DMSO. After 20 minute incubation at room temperature Alpha streptavidin donor beads and AlphaLisa anti-Flag acceptor beads were added to a final concentration of 10 ug/mL each. After three hours equilibration plates were read on an Envision instrument and IC50s calculated using a four parameter non-linear curve fit.

Compound	IC50
Cc1sc2c(c1C)C(c1ccc(Cl)cc1)=NC1(CC1)c1nnc(C)n1-2 [Compound 214, 4′-(4-Chlorophenyl)-2′,3′,9′-trimethylspiro[cyclopropane-1,6′-thieno[3,2-f][1,2,4]triazolo[4,3-a][1,4]diazepine]]	< 500 nM

Same assay, conditions: BRD4(BD1) 30 nM, biotinylated H4-tetraacetyl peptide 200 nM; read-out: BRD4 Alphascreen IC50

Compound	IC50
Cc1sc2c(c1C)C(c1ccc(Cl)cc1)=NC1(CC1C)c1nnc(C)n1-2 (racemic) [Compound 215, 4′-(4-chlorophenyl)-2,2′,3′,9′-tetramethylspiro[cyclopropane-1,6′-thieno[3,2-f][1,2,4]triazolo[4,3-a][1,4]diazepine]]	< 500 nM
COC[C@@H]1C[C@]12N=C(c1ccc(Cl)cc1)c1c(sc(C)c1C)-n1c(C)nnc12 [Compound 202, (1S,2R)-4′-(4-chlorophenyl)-2-(methoxymethyl)-2′,3′,9′-trimethylspiro[cyclopropane-1,6′-thieno[3,2-f][1,2,4]triazolo[4,3-a][1,4]diazepine]]	< 500 nM
Cc1sc2c(c1C)C(c1ccc(Cl)cc1)=N[C@]1(C[C@H]1CO)c1nnc(C)n1-2 [Compound 203, ((1S,2R)-4′-(4-chlorophenyl)-2′,3′,9′-trimethylspiro[cyclopropane-1,6′-thieno[3,2-f][1,2,4]triazolo[4,3-a][1,4]diazepin]-2-yl)methanol]	< 500 nM
CCNC(=O)[C@@H]1C[C@]12N=C(c1ccc(Cl)cc1)c1c(sc(C)c1C)-n1c(C)nnc12 [Compound 204, (1S,2R)-4′-(4-chlorophenyl)-N-ethyl-2′,3′,9′-trimethylspiro[cyclopropane-1,6′-thieno[3,2-f][1,2,4]triazolo[4,3-a][1,4]diazepine]-2-carboxamide]	> 1000 nM
Cc1sc2c(c1C)C(c1ccc(Cl)cc1)=N[C@]1(C[C@H]1C(N)=O)c1nnc(C)n1-2 [Compound 205, (1S,2R)-4′-(4-Chlorophenyl)-2′,3′,9′-trimethylspiro[cyclo-propane-1,6′-thieno[3,2-f][1,2,4]triazolo[4,3-a][1,4]diazepine]-2-carboxamide]	500 to 1000 nM
Cc1sc2c(c1C)C(c1ccc(Cl)cc1)=N[C@]1(C[C@H]1CN)c1nnc(C)n1-2 [Compound 206, ((1S,2S)-4′-(4-Chlorophenyl)-2′,3′,9′-trimethylspiro[cyclo-propane-1,6′-thieno[3,2-f][1,2,4]triazolo[4,3-a][1,4]diazepin]-2-yl)methanamine]	< 500 nM
CC(=O)NC[C@@H]1C[C@]12N=C(c1ccc(Cl)cc1)c1c(sc(C)c1C)-n1c(C)nnc12 [Compound 207, N-(((1S,2S)-4′-(4-Chlorophenyl)-2′,3′,9′-trimethylspiro[cyclopropane-1,6′-thieno[3,2-f][1,2,4]triazolo[4,3-a][1,4]diazepin]-2-yl)methyl)acetamide]	< 500 nM
CCNC[C@@H]1C[C@]12N=C(c1ccc(Cl)cc1)c1c(sc(C)c1C)-n1c(C)nnc12 [Compound 208, N-(((1S,2S)-4′-(4-Chlorophenyl)-2′,3′,9′-trimethylspiro[cyclopropane-1,6′-thieno[3,2-f][1,2,4]triazolo[4,3-a][1,4]diazepin]-2-yl)methyl)ethanamine]	< 500 nM
COC[C@H]1C[C@@]12N=C(c1ccc(Cl)cc1)c1c(sc(C)c1C)-n1c(C)nnc12 [Compound 209, (1R,2S)-4′-(4-chlorophenyl)-2-(methoxymethyl)-2′,3′,9′-trimethylspiro[cyclopropane-1,6′-thieno[3,2-f][1,2,4]triazolo[4,3-a][1,4]diazepine]]	< 500 nM
Cc1sc2c(c1C)C(c1ccc(Cl)cc1)=N[C@@]1(C[C@@H]1CO)c1nnc(C)n1-2 [Compound 210, ((1R,2S)-4′-(4-Chlorophenyl)-2′,3′,9′-trimethylspiro[cyclo-propane-1,6′-thieno[3,2-f][1,2,4]triazolo[4,3-a][1,4]diazepin]-2-yl)methanol]	< 500 nM
CCNC(=O)[C@H]1C[C@@]12N=C(c1ccc(Cl)cc1)c1c(sc(C)c1C)-n1c(C)nnc12 [Compound 211, (1R,2S)-4′-(4-chlorophenyl)-N-ethyl-2′,3′,9′-trimethylspiro[cyclopropane-1,6′-thieno[3,2-f][1,2,4]triazolo[4,3-a][1,4]diazepine]-2-carboxamide]	> 1000 nM
CCNC(=O)[C@@H]1C[C@@]12N=C(c1ccc(Cl)cc1)c1c(sc(C)c1C)-n1c(C)nnc12 [Compound 212, (1R,2R)-4′-(4-Chlorophenyl)-N-ethyl-2′,3′,9′-trimethylspiro-[cyclopropane-1,6′-thieno[3,2-f][1,2,4]triazolo[4,3-a][1,4]diazepine]-2-carboxamide]	> 1000 nM
Cc1nsc2c1C(c1ccc(Cl)cc1)=NC1(CC1)c1nnc(C)n1-2 [Compound 213, 4′-(4-chlorophenyl)-3′,9′-dimethylspiro[cyclopropane-1,6′-isothiazolo[4,5-f][1,2,4]triazolo[4,3-a][1,4]diazepine]]	> 1000 nM
Cc1nnc2n1-c1ccccc1C(c1ccc(Cl)cc1)=NC21CC1 [Compound 216, 6-(4-chlorophenyl)-1-methylspiro[benzo[f][1,2,4]triazolo[4,3-a][1,4]diazepine-4,1′-cyclopropane]]	< 500 nM
Cc1sc2c(c1C)C(c1ccc(Cl)cc1)=NC1(CC1)c1nncn1-2 [Compound 217, 4′-(4-Chlorophenyl)-2′,3′-dimethylspiro[cyclopropane-1,6′-thieno[3,2-f][1,2,4]triazolo[4,3-a][1,4]diazepine]]	> 1000 nM
Cc1sc2c(c1C)C(c1ccc(Cl)cc1)=N[C@@]1(C[C@@H]1C)C(=O)N2 [Compound 218, (1R,2S)-5′-(4-chlorophenyl)-2,6′,7′-trimethylspiro[cyclopropane-1,3′-thieno[2,3-e][1,4]diazepin]-2′(1′H)-one]	> 1000 nM

More lines, now with the values ahead:

IC50	Compound
< 500 nM	Cc1sc2c(c1C)C(c1ccc(Cl)cc1)=N[C@@]1(C[C@@H]1C)c1nnc(C)n1-2 [Compound 219, (1R,2S)-4′-(4-chlorophenyl)-2,2′,3′,9′-tetramethylspiro-[cyclopropane-1,6′-thieno[3,2-f][1,2,4]triazolo[4,3-a][1,4]diazepine]]
< 500 nM	Cc1sc2c(c1C)C(c1ccc(Cl)cc1)=N[C@]1(C[C@H]1C)c1nnc(C)n1-2 [Compound 220, (1S,2R)-4′-(4-chlorophenyl)-2,2′,3′,9′-tetramethyl-spiro[cyclopropane-1,6′-thieno[3,2-f][1,2,4]triazolo[4,3-a][1,4]diazepine]]
< 500 nM	Cc1sc2c(c1C)C(c1ccc(N)cc1)=N[C@]1(C[C@H]1C)c1nnc(C)n1-2 [Compound 221, 4-((1S,2R)-2,2′,3′,9′-tetramethylspiro[cyclopropane-1,6′-thieno[3,2-f][1,2,4]triazolo[4,3-a][1,4]diazepin]-4′-yl)aniline]
> 1000 nM	Cc1sc2c(c1C)C(c1ccc(Cl)cc1)=N[C@]1(C[C@H]1C)c1n[nH]c(=O)n1-2 [Compound 222, (1S,2R)-4′-(4-chlorophenyl)-2,2′,3′-trimethylspiro[cyclopropane-1,6′-thieno[3,2-f][1,2,4]triazolo[4,3-a][1,4]diazepin]-9′(8′H)-one 2,2,2-trifluoroacetic acid]
< 500 nM	Cc1sc2c(c1C)C(c1ccc(Cl)cc1)=NC1(CCC1)c1nnc(C)n1-2 [Compound 223, 4′-(4-chlorophenyl)-2′,3′,9′-trimethylspiro[cyclobutane-1,6′-thieno[3,2-f][1,2,4]triazolo[4,3-a][1,4]diazepine]]
> 1000 nM	Cc1sc2c(c1C)C(c1ccc(Cl)cc1)=NC1(CNC1)c1nnc(C)n1-2 [Compound 224, 4′-(4-chlorophenyl)-2′,3′,9′-trimethylspiro[azetidine-3,6′-thieno[3,2-f][1,2,4]triazolo[4,3-a][1,4]diazepine]]
< 500 nM	Cc1sc2c(c1C)C(c1ccc(Cl)cc1)=NC1(COC1)c1nnc(C)n1-2 [Compound 226, 4′-(4-Chlorophenyl)-2′,3′,9′-trimethylspiro[oxetane-3,6′-thieno[3,2-f][1,2,4]triazolo[4,3-a][1,4]diazepine]]
> 1000 nM	Cc1noc2c1-c1ccc(Cl)cc1C(c1ccc(F)cc1)=NC21CC1 [Compound 250, 8-Chloro-6-(4-fluorophenyl)-1-methylspiro[benzo[c]isoxazolo[4,5-e]azepine-4,1′-cyclopropane]]
< 500 nM	Cc1noc2c1-c1ccc(-c3ccc(N)nc3)cc1C(c1ccc(F)cc1)=NC21CC1 [Compound 251, 5-(6-(4-Fluorophenyl)-1-methylspiro[benzo[c]isoxazolo[4,5-e]azepine-4,1′-cyclopropan]-8-yl)pyridin-2-amine]
> 1000 nM	Cc1noc2c1-c1cn(C)nc1C(c1ccc(Cl)cc1)=NC2 [Compound 265, 6-(4-chlorophenyl)-1,8-dimethyl-4,8-dihydroisoxazolo[5,4-c]pyrazolo[4,3-e]azepine]

From patent US9249161B2, “Bromodomain inhibitors and uses thereof” (Constellation Pharmaceuticals, Inc., priority 2010, dated 2016)
